Reference: ChEMBL document CHEMBL3045600, “Synthesis and Fungicidal Activities of Phenoxyphenyl Alkoxyiminoacetamide Derivatives” (J Pestic Sci, 1998)

How the values were obtained:
Assay type in all cases: functional
[1] = test system: Pseudoperonospora cubensis; assay: Fungicidal activity against Pseudoperonospora cubensis assessed as cucumber downy mildew disease control at 31.3 ppm foliar application 24 hr before inoculation on upper surface of leaf by preventive manner
Botrytis cinerea [2] = assay: Fungicidal activity against Botryotinia fuckeliana assessed as cucumber gray mold disease control at 31.3 ppm foliar application 24 hr after inoculation at 22 +/- 2 degC measured after 3 days by curative manner
Podosphaera fuliginea [3] = assay: Fungicidal activity against Podosphaera fuliginea assessed as cucumber powdery mildew control under greenhouse at 125 ppm foliar application 24 hr after inoculation on upper surface of leaf at 23 +/- 2 degC by curative manner
Podosphaera fuliginea [4] = assay: Fungicidal activity against Podosphaera fuliginea assessed as cucumber powdery mildew control under greenhouse at 125 ppm foliar application 24 hr before inoculation on upper surface of leaf at 23 +/- 2 degC by preventive manner
Pyricularia oryzae [5] = assay: Fungicidal activity against Magnaporthe oryzae assessed as rice blast disease control at 0.63 ppm submerged application measured after 7 days
Podosphaera fuliginea [6] = assay: Fungicidal activity against Podosphaera fuliginea assessed as cucumber powdery mildew control under greenhouse at 31.3 ppm foliar application 24 hr after inoculation on upper surface of leaf at 23 +/- 2 degC by curative manner
[7] = test system: Pseudoperonospora cubensis; assay: Fungicidal activity against Pseudoperonospora cubensis assessed as cucumber downy mildew disease control at 7.8 ppm foliar application 24 hr before inoculation on upper surface of leaf by preventive manner
Pyricularia oryzae [8] = assay: Fungicidal activity against Magnaporthe oryzae assessed as rice blast disease control at 0.16 ppm submerged application measured after 7 days
Thanatephorus cucumeris [9] = assay: Fungicidal activity against Thanatephorus cucumeris assessed as rice sheath blight disease control at 7.8 ppm foliar application for 24 hr before inoculation at 26 +- 2 measured after 5 days by preventive manner
[10] = test system: Pseudoperonospora cubensis; assay: Fungicidal activity against Pseudoperonospora cubensis assessed as cucumber downy mildew disease control at 125 ppm foliar application 24 hr before inoculation on upper surface of leaf by preventive manner
Podosphaera fuliginea [11] = assay: Fungicidal activity against Podosphaera fuliginea assessed as cucumber powdery mildew control under greenhouse at 7.8 ppm foliar application 24 hr after inoculation on upper surface of leaf at 23 +/- 2 degC by curative manner
Botrytis cinerea [12] = assay: Fungicidal activity against Botryotinia fuckeliana assessed as cucumber gray mold disease control at 125 ppm foliar application 24 hr after inoculation at 22 +/- 2 degC measured after 3 days by curative manner
Pyricularia oryzae [13] = assay: Fungicidal activity against Magnaporthe oryzae assessed as rice blast disease control at 10 ppm submerged application measured after 7 days
[14] = test system: Pseudoperonospora cubensis; assay: Fungicidal activity against Pseudoperonospora cubensis assessed as cucumber downy mildew disease control at 2 ppm foliar application 24 hr before inoculation on upper surface of leaf by preventive manner
Podosphaera fuliginea [15] = assay: Fungicidal activity against Podosphaera fuliginea assessed as cucumber powdery mildew control under greenhouse at 2 ppm foliar application 24 hr after inoculation on upper surface of leaf at 23 +/- 2 degC by curative manner
Podosphaera fuliginea [16] = assay: Fungicidal activity against Podosphaera fuliginea assessed as cucumber powdery mildew control under greenhouse at 7.8 ppm foliar application 24 hr before inoculation on upper surface of leaf at 23 +/- 2 degC by preventive manner
Thanatephorus cucumeris [17] = assay: Fungicidal activity against Thanatephorus cucumeris assessed as rice sheath blight disease control at 125 ppm foliar application for 24 hr before inoculation at 26 +- 2 measured after 5 days by preventive manner
Pyricularia oryzae [18] = assay: Fungicidal activity against Magnaporthe oryzae assessed as rice blast disease control at 2.5 ppm submerged application measured after 7 days
Podosphaera fuliginea [19] = assay: Fungicidal activity against Podosphaera fuliginea assessed as cucumber powdery mildew control under greenhouse at 31.3 ppm foliar application 24 hr before inoculation on upper surface of leaf at 23 +/- 2 degC by preventive manner
Thanatephorus cucumeris [20] = assay: Fungicidal activity against Thanatephorus cucumeris assessed as rice sheath blight disease control at 2 ppm foliar application for 24 hr before inoculation at 26 +- 2 measured after 5 days by preventive manner
Botrytis cinerea [21] = assay: Fungicidal activity against Botryotinia fuckeliana assessed as cucumber gray mold disease control at 2 ppm foliar application 24 hr after inoculation at 22 +/- 2 degC measured after 3 days by curative manner
Botrytis cinerea [22] = assay: Fungicidal activity against Botryotinia fuckeliana assessed as cucumber gray mold disease control at 7.8 ppm foliar application 24 hr after inoculation at 22 +/- 2 degC measured after 3 days by curative manner
Thanatephorus cucumeris [23] = assay: Fungicidal activity against Thanatephorus cucumeris assessed as rice sheath blight disease control at 31.3 ppm foliar application for 24 hr before inoculation at 26 +- 2 measured after 5 days by preventive manner
Podosphaera fuliginea [24] = assay: Fungicidal activity against Podosphaera fuliginea assessed as cucumber powdery mildew control under greenhouse at 2 ppm foliar application 24 hr before inoculation on upper surface of leaf at 23 +/- 2 degC by preventive manner

Structure (SMILES)	Activity [1] [%]	Activity (Podosphaera fuliginea [3]) [%]	Activity (Podosphaera fuliginea [4]) [%]	Activity (Pyricularia oryzae [5]) [%]	Activity (Podosphaera fuliginea [6]) [%]	Activity [7] [%]	Activity (Pyricularia oryzae [8]) [%]	Activity (Thanatephorus cucumeris [9]) [%]	Activity [10] [%]	Activity (Podosphaera fuliginea [11]) [%]	Activity (Pyricularia oryzae [13]) [%]	Activity [14] [%]	Activity (Podosphaera fuliginea [15]) [%]	Activity (Podosphaera fuliginea [16]) [%]	Activity (Thanatephorus cucumeris [17]) [%]	Activity (Pyricularia oryzae [18]) [%]	Activity (Podosphaera fuliginea [19]) [%]	Activity (Thanatephorus cucumeris [20]) [%]	Activity (Thanatephorus cucumeris [23]) [%]	Activity (Podosphaera fuliginea [24]) [%]	also measured
CNC(=O)/C(=N/OC)c1ccccc1Oc1ccccc1C	<70	50	70	50	50	<70	50	<70	<70	50	50	<70	50	70	<70	50	70	<70	<70	70	Activity (Botrytis cinerea [2]): 50%; Activity (Botrytis cinerea [12]): 50%; Activity (Botrytis cinerea [21]): 50%; Activity (Botrytis cinerea [22]): 50%
CNC(=O)/C(=N/OC)c1ccccc1Oc1ccc(C)cc1	<70	50	70	50	50	<70	50	70	<70	50	50	<70	50	70	70	50	70	70	70	70	Activity (Botrytis cinerea [2]): 50%; Activity (Botrytis cinerea [12]): 50%; Activity (Botrytis cinerea [21]): 50%; Activity (Botrytis cinerea [22]): 50%
CNC(=O)/C(=N/OC)c1ccccc1Oc1ccc(C(C)C)cc1	70	50	70	50	50	70	50	70	70	50	50	70	50	70	70	50	70	70	70	70	Activity (Botrytis cinerea [2]): 50%; Activity (Botrytis cinerea [12]): 50%; Activity (Botrytis cinerea [21]): 50%; Activity (Botrytis cinerea [22]): 50%
CNC(=O)/C(=N/OC)c1ccccc1Oc1ccc([Si](C)(C)C)cc1	<70	50	70	<50	50	<70	<50	<70	<70	50	<50	<70	50	70	<70	<50	70	<70	<70	70	Activity (Botrytis cinerea [2]): <50%; Activity (Botrytis cinerea [12]): <50%; Activity (Botrytis cinerea [21]): <50%; Activity (Botrytis cinerea [22]): <50%
CNC(=O)/C(=N/OC)c1ccccc1Oc1cccc(O)c1	<70		<70	50		<70	50	70	<70		50	<70		<70	70	50	<70	70	70	<70	
CNC(=O)/C(=N/OC)c1ccccc1Oc1ccc(Oc2ccccc2)cc1	<70	50	70	50	50	<70	50	70	<70	50	50	<70	50	70	70	50	70	70	70	70	
CNC(=O)/C(=N/OC)c1ccccc1Oc1cccc(OCC#N)c1	<70	50	70	<50	50	<70	<50	<70	<70	50	<50	<70	50	70	<70	<50	70	<70	<70	70	
CNC(=O)/C(=N/OC)c1ccccc1Oc1cccc(OCc2ccccc2)c1	70	50	70	<50	50	70	<50	70	70	50	<50	70	50	70	70	<50	70	70	70	70	Activity (Botrytis cinerea [2]): 50%; Activity (Botrytis cinerea [12]): 50%; Activity (Botrytis cinerea [21]): 50%; Activity (Botrytis cinerea [22]): 50%
CNC(=O)/C(=N/OC)c1ccccc1Oc1ccc(C(C)C)cc1C(C)C	<70	50	70	50	50	<70	50	70	<70	50	50	<70	50	70	70	50	70	70	70	70	
CCO/N=C(/C(=O)NC)c1ccccc1Oc1ccccc1	<70		70			<70		<70	<70			<70		70	<70		70	<70	<70	70	
CNC(=O)/C(=N/OC(C)C)c1ccccc1Oc1ccccc1	<70		<70			<70		<70	<70			<70		<70	<70		<70	<70	<70	<70	
